Target: T1, human 5-HT4 receptor (Homo sapiens, UniProt Q13639)
T1 construct: expressed in transfected cells; host or cells: COS-7
Experiment: Binding affinity of compounds for 5-HT4 receptor (radioligand displacement, membrane lysates of COS-7 cells)
Conditions: inhibition of specific binding of 0.595 nM [H3]-AGR113808; COS-7 cell membrane lysates expressing human 5-HT4 receptor
Protocol: For this purpose, COS-7 cells expressing the human 5-HT4 receptor were constructed and lysed to obtain cell membrane lysates which were then used in binding assay experiments. For binding assay, the membrane lysates were mixed and incubated with different concentrations of test materials and [H3]-AGR113808. […] After incubation was completed, the reaction products were collected in a GF/B glass fiber filter using a Packard cell harvester, and the bound radioactivity was then determined using a liquid cell scintillation counter (Packard TopCount NXT™, Perkin Elmer). Specific binding of the radioligand to the 5-HT4 receptor was calculated by subtracting the non-specific binding of the radioligand from the total radioligand binding. IC50 was calculated from % inhibition of specific binding of the radioligand to the 5-HT4 receptor, with respect to varying concentrations of the test materials.

T1 sequence (Q13639 whole entry): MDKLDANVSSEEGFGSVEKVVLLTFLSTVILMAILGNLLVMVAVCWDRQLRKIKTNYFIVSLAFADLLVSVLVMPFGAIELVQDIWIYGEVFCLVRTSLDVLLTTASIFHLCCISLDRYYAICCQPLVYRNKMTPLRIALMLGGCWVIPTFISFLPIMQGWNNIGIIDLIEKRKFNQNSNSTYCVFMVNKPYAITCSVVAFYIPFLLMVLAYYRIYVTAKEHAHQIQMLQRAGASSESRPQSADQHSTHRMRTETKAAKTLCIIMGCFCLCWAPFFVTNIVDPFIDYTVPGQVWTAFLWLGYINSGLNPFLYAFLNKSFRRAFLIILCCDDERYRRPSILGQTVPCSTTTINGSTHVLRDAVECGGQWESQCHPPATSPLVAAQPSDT

CCCCCC(=O)N1CCC(CN2CC[C@H](NC(=O)c3cc(Cl)c(N)cc3OC)[C@H](OC)C2)CC1 (relative stereo) [Compound 23, cis-4-amino-5-chloro-N-[1-((1-hexanoylpiperidin-4-yl)methyl)-3-methoxypiperidin-4-yl]-2-methoxybenzamide]
IC50: 61 nM

COc1cc(N)c(Cl)cc1C(=O)N[C@H]1CCN(CC2CCN(C(=O)OCCCC(C)C)CC2)C[C@H]1OC (relative stereo) [Compound 13, 4-methyl-pentyl 4-[(cis-4-(4-amino-5-chloro-2-methoxybenzamido)-3-methoxypiperidin-1-yl)methyl]piperidine-1-carboxylate]
IC50: 146 nM

COc1cc(N)c(Cl)cc1C(=O)N[C@H]1CCN(CC2CCN(C(=O)CC(C)(C)C)CC2)C[C@H]1OC (relative stereo) [Compound 26, cis-4-amino-5-chloro-N-[1-((1-(3,3-dimethylbutanoyl)piperidin-4-yl)methyl)-3-methoxypiperidin-4-yl]-2-methoxybenzamide]
IC50: 45 nM

COc1cc(N)c(Cl)cc1C(=O)N[C@H]1CCN(CC2CCN(C(=O)OC(C)C)CC2)C[C@H]1OC (relative stereo) [Compound 8, isopropyl 4-[(cis-4-(4-amino-5-chloro-2-methoxybenzamido)-3-methoxypiperidin-1-yl)methyl]piperidine-1-carboxylate]
IC50: 130 nM

COc1cc(N)c(Cl)cc1C(=O)N[C@H]1CCN(CC2CCN(C(=S)CC(C)C)CC2)C[C@H]1OC (relative stereo) [Compound 36, cis-4-amino-5-chloro-N-[1-((1-(3-methylbutanethioyl)piperidin-4-yl)methyl)-3-methoxypiperidin-4-yl]-2-methoxybenzamide]
IC50: 175 nM

COc1cc(N)c(Cl)cc1C(=O)N[C@H]1CCN(CC2CCN(S(C)(=O)=O)CC2)C[C@H]1OC (relative stereo) [Compound 43, cis-4-amino-5-chloro-N-[1-((1-(methylsulfonyl)piperidin-4-yl)methyl)-3-methoxypiperidin-4-yl]-2-methoxybenzamide]
IC50: 167 nM

CCSC(=O)N1CCC(CN2CC[C@H](NC(=O)c3cc(Cl)c(N)cc3OC)[C@H](OC)C2)CC1 (relative stereo) [Compound 39, S-ethyl 4-[(cis-4-(4-amino-5-chloro-2-methoxybenzamido)-3-methoxypiperidin-1-yl)methyl]piperidine-1-carbothioate]
IC50: 47 nM

CCCCC(=S)N1CCC(CN2CC[C@H](NC(=O)c3cc(Cl)c(N)cc3OC)[C@H](OC)C2)CC1 (relative stereo) [Compound 33, cis-4-amino-5-chloro-N-[1-((1-pentanethioylpiperidin-4-yl)methyl)-3-methoxypiperidin-4-yl]-2-methoxybenzamide]
IC50: 107 nM

COc1cc(N)c(Cl)cc1C(=O)N[C@H]1CCN(CCC(=O)Nc2ccc3[nH]ccc3c2)C[C@H]1OC (relative stereo) [Compound 61, cis-4-amino-5-chloro-N-[1-(3-oxo-3-(1H-indol-5-ylamino)propyl)-3-methoxypiperidin-4-yl]-2-methoxybenzamide]
IC50: 48 nM

CCCCC(=O)N1CCC(CN2CC[C@H](NC(=O)c3cc(Cl)c(N)cc3OC)[C@H](OC)C2)CC1 (relative stereo) [Compound 22, cis-4-amino-5-chloro-N-[1-((1-pentanoylpiperidin-4-yl)methyl)-3-methoxypiperidin-4-yl]-2-methoxybenzamide]
IC50: 73 nM

COc1cc(N)c(Cl)cc1C(=O)N[C@H]1CCN(CC2CCN(S(=O)(=O)C(C)C)CC2)C[C@H]1OC (relative stereo) [Compound 42, cis-4-amino-5-chloro-N-[1-((1-(isopropylsulfonyl)piperidin-4-yl)methyl)-3-methoxypiperidin-4-yl]-2-methoxybenzamide]
IC50: 47 nM

CCCCCC(=S)N1CCC(CN2CC[C@H](NC(=O)c3cc(Cl)c(N)cc3OC)[C@H](OC)C2)CC1 (relative stereo) [Compound 34, cis-4-amino-5-chloro-N-[1-((1-hexanethioylpiperidin-4-yl)methyl)-3-methoxypiperidin-4-yl]-2-methoxybenzamide]
IC50: 52 nM
